Literature values in US8158161B2, “Methods and pharmaceutical compositions useful for treating psoriasis” (S.U.L.V.E. Ltd., priority 2005, dated 2012).

System: K562 cells
Conditions: Leoni 1997

| Structure (SMILES) | rank among isothiocyanates tested as inhibitors of leukemic cell growth |
| --- | --- |
| S=C=NCc1ccccc1 [Benzyl-isothiocyanate] | most potent inhibitors |
| C=CCN=C=S [2-Propenyl-isothiocyanate] | most potent inhibitors |
